# From ChEMBL document CHEMBL1143478, “Conformationally restricted anti-plasmodial chalcones” (Bioorg Med Chem Lett, 2005)
# Tested on: Plasmodium falciparum
# Test: In vitro antimalarial activity against Plasmodium falciparum 3D7
# Assay type: functional, organism-based
row,IC50 [µg/mL],Compound
1,7.6,COc1ccccc1/C=C/C(=O)c1ccccc1
2,9.3,COc1ccc(Br)cc1/C=C/C(=O)c1ccccc1C
3,13.5,Cc1ccccc1C(=O)C1=Cc2cc(Br)ccc2OC1
4,13.3,COc1ccc(C(=O)C2=Cc3ccc(OC)cc3OC2)cc1
5,15.1,COc1cccc2c1OCC(C(=O)c1ccccc1C)=C2
6,10,COc1ccc(Br)cc1/C=C/C(=O)c1ccc(C)cc1
7,4.7,O=C(C1=Cc2ccccc2OC1)c1ccccc1
8,8.6,Cc1ccc(C(=O)C2=Cc3cc(Br)ccc3OC2)cc1
9,35,O=C(C1=C(c2ccccc2)CCC1)c1ccccc1
10,11,COc1cccc(/C=C/C(=O)c2ccccc2C)c1OC
11,6,COc1ccc(C(=O)/C=C/c2ccc(OC)cc2OC)cc1
12,> 100,COc1ccc(C(=O)C2=C(c3ccc(OC)cc3)CCC2)cc1
13,8.9,"COc1ccc(/C=C/C(=O)c2ccc(OC)cc2)cc1 [4,4'-DIMETHOXYCHALCONE]"
14,6.7,O=C(/C=C/c1ccccc1)c1ccccc1 [CHALCONE]
15,2.2,C=CC(C)(C)c1cc(/C=C/C(=O)c2ccc(O)cc2)c(OC)cc1O [LICOAGROCHACONE A]
